Our source for the IC50 and Selectivity of wild-type/mutant-type values is patent US10428081B2, “EGFR inhibitor, preparation method and use thereof” (Shanghai Hansoh Biomedical Co., Ltd., priority 2014, dated 2019).

The IC50 is the point on the concentration scale where inhibition reaches its midpoint.

Assay [1] addresses exon 20 T790M mutant-type EGFR enzyme (Homo sapiens, UniProt P00533, T790M). The assay is described as follows: Enzymologic experiment of T790M mutant-type EGFR (TR-FRET). Format: biochemical. As to conditions: for IC50: T790M EGFR enzyme, TR-FRET, ATP 1 to 10 uM; for Selectivity of wild-type/mutant-type: ratio WT IC50 / T790M IC50, enzyme. On the procedure: (§1) 2) 1 to 5 μL of diluted solution in gradient of the compound was added.
(§2) 3) The mixture was incubated for 10 minutes at room temperature.
(§3) 6) 5 μL of EDTA stop solution was added to terminate the reaction for 5 minutes.
7) […] of a test solution containing the labeled antibody was added, and the mixture was incubated at room temperature for 1 hour.
9) The inhibition rates were calculated according to the fluorescence signal values.
(§4) 10) The IC50 of the compound was obtained by curve fitting according to the inhibition rates at different concentrations.

The subject of another assay is NCI-H1975 cells. The assay is described as follows: Inhibition of NCI-H1975 cell proliferation (CellTiter-Glo). It counts as cell-based. The settings on record: Homo sapiens, NCI-H1975, 72 h, NCI-H1975 cell proliferation, 72 hours, CellTiter-Glo; read-out: EGFR IC50 (nM) H1975. The protocol:
3. Experiment on the Inhibition of NCI-H1975 Cell Proliferation
In this experiment, the inhibitory effect of the compounds on NCI-H1975 cell proliferation was tested by a CellTiter-Glo method, and the half maximal inhibitory concentration (IC50) of the compounds on the activity of cell proliferation was determined.
The culture plate was incubated in an incubator for 16 to 24 hours (37° C., 5% CO2).
2) Different concentrations of the test compound in a gradient dilution were added to the cells in the culture plate. The culture plate was incubated in an incubator for 72 hours (37° C., 5% CO2).
3) 50 to 100 μL of CellTiter-Glo reagent was added to each well. Then, the culture plate was shaken for 10 minutes, and left to stand at room temperature for 10 minutes.
4) The chemiluminescence signal values of each plate were determined by a microplate reader.
5) The inhibition rates were calculated according to the chemiluminescence signal values.
6) The IC50 of the compound was obtained by curve fitting according to the inhibition rates at different concentrations.
(In general: Cellular ATP, detected with luciferase, serves as a proxy for viable cell number.)

Another assay has as its target wild-type EGFR enzyme (Homo sapiens, UniProt P00533). The assay is described as follows: Enzymologic experiment of wild-type (WT) EGFR (TR-FRET). It counts as biochemical. As to conditions: ATP 0.1 to 5 uM. On the procedure:
2. Enzymologic Experiment of Wild-Type (WT) EGFR
In this experiment, the inhibitory effect of compounds on wild-type EGFR enzyme was tested by a fluorescence resonance energy transfer (TR-FRET) method, and the half maximal inhibitory concentration IC50 of the compounds on enzymatic activity was determined.
1) 1 to 5 μL of wild-type EGFR enzyme solution was added to a 384-well plate, and the final concentration of the enzyme was 0.1 to 1 nM.
as §1, §2, §3
7) 5 μL of a test solution containing the labeled antibody was added, and the mixture was incubated at room temperature for 1 hour.
9) The inhibition rates were calculated from the fluorescence signal values.
as §4
For orientation: Time-resolved FRET reads energy transfer from a long-lived donor to a nearby acceptor.

Chain of wild-type EGFR enzyme (P00533 25-1210): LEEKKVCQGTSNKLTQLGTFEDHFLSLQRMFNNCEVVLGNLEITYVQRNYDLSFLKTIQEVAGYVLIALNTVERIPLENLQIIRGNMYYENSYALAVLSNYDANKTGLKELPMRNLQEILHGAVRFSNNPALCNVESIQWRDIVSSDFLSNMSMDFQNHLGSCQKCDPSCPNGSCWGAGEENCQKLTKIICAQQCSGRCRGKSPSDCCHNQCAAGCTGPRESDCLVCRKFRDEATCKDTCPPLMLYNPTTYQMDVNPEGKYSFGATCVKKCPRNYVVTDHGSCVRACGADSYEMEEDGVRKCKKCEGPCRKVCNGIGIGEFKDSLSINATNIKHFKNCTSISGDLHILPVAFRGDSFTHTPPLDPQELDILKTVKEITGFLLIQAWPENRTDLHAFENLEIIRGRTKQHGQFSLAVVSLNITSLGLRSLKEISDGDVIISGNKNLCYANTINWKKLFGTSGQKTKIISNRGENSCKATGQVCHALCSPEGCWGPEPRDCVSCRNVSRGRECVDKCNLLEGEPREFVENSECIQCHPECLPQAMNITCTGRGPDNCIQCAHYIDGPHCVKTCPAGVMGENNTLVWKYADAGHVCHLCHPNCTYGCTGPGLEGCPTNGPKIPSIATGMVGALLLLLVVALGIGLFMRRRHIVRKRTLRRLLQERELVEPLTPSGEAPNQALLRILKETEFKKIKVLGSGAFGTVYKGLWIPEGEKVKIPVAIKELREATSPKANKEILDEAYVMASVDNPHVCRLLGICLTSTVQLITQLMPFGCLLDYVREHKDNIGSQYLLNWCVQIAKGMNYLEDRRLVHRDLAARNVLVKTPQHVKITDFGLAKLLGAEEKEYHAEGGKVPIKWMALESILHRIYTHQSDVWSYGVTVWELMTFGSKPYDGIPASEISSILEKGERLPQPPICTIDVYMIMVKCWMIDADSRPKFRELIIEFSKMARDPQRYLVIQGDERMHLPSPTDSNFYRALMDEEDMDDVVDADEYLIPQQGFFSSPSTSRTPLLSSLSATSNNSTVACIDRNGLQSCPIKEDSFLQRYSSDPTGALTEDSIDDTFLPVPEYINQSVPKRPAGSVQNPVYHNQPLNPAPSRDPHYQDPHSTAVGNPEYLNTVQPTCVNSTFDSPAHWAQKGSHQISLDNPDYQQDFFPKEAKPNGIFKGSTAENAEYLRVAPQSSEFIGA
Chain of exon 20 T790M mutant-type EGFR enzyme (P00533 25-1210 T790M): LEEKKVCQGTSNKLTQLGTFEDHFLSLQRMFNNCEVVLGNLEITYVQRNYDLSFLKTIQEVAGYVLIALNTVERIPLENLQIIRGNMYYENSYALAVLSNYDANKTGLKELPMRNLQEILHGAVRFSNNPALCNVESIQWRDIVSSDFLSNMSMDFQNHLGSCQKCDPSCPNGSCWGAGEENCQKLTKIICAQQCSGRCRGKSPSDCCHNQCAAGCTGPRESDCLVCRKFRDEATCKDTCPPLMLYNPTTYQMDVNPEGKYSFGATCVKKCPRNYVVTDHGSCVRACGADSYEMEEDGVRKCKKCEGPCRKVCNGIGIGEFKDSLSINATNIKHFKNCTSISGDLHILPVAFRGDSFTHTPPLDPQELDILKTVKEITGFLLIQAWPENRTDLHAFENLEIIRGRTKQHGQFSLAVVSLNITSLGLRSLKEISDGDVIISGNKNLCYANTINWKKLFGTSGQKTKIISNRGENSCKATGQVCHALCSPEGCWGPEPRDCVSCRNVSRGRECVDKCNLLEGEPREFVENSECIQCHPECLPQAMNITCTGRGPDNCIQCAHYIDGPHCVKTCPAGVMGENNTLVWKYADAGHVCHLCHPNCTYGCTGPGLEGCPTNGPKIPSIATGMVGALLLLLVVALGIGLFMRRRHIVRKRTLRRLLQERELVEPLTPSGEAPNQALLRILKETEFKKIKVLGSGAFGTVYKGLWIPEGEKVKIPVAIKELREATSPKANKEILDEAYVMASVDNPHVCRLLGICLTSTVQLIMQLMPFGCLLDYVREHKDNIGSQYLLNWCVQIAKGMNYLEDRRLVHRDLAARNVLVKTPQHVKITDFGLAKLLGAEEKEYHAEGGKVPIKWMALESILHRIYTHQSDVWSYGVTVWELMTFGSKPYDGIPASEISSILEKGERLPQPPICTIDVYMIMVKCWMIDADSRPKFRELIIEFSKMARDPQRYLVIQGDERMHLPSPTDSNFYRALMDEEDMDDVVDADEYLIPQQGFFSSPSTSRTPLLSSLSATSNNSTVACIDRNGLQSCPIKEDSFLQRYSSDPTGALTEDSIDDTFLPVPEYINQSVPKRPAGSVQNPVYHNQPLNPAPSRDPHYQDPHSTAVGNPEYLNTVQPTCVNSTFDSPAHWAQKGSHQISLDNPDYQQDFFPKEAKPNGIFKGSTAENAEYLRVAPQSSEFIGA

Consider `C=CC(=O)Nc1cc(Nc2nccc(-c3cn(C)c4ccc(C5CC5)cc34)n2)c(OC)cc1N(C)CCN(C)C` [Example 23, N-(5-((4-(5-cyclopropyl-1-methyl-1H-indol-3-yl)pyrimidin-2-yl)amino)-2-((2-(dimethylamino)ethyl)(methyl)amino)-4-methoxyphenyl)acrylamide], for which the IC50 in assay [1] was 2.75 nM; with NCI-H1975 cells, 46.8 nM.
Take `C=CC(=O)Nc1cc(Nc2ncc(Cl)c(-n3nc(CCC)c4cc(C#N)ccc43)n2)c(OC)cc1N(C)CCN(C)C` [Example 116, N-(5-((5-chloro-4-(5-cyano-3-propyl-1H-indazol-1-yl)pyrimidin-2-yl)amino)-2-((2-(dimethylamino)ethyl)(methyl)amino)-4-methoxyphenyl)acrylamide]: in assay [1], it took 0.8 nM to reach half-maximal inhibition (IC50) and the Selectivity of wild-type/mutant-type is recorded as 24.45. On wild-type EGFR enzyme, this compound had a half-maximal inhibitory concentration (IC50) of 19.6 nM.
The corresponding values for `C=CC(=O)Nc1cc(Nc2nccc(-n3nc(OC)c4cc(Cl)ccc43)n2)c(OC)cc1N(C)CCN(C)C` [Example 110, N-(5-((4-(5-chloro-3-methoxy-1H-indazol-1-yl)pyrimidin-2-yl)amino)-2-((2-(dimethylamino)ethyl)(methyl)amino)-4-methoxyphenyl)acrylamide] are 1.06 nM, 9.10 and 9.65 nM.
Regarding `C=CC(=O)Nc1cc(Nc2nccc(-c3cn(C)c4ccccc34)n2)c(OC(F)F)cc1N(C)CCN(C)C` [Example 1, N-(4-(difluoromethoxy)-2-((2-(dimethylamino)ethyl)(methyl)amino)-5-((4-(1-methyl-1H-indol-3-yl)pyrimidin-2-yl)amino)phenyl)acrylamide], the IC50 in assay [1] came to 0.15 nM; at wild-type EGFR enzyme, 2 nM. In addition, the Selectivity of wild-type/mutant-type in assay [1] worked out at 13.
`C=CC(=O)Nc1cc(Nc2nccc(-n3ncc4cc(C5CC5)ccc43)n2)c(OC)cc1N(C)CCN(C)C` [Example 47, N-(5-((4-(5-cyclopropyl-1H-indazol-1-yl)pyrimidin-2-yl)amino)-2-((2-(dimethylamino)ethyl)(methyl)amino)-4-methoxyphenyl)acrylamide] had an IC50 in assay [1] of 41.4 nM.
On the same count and under the same terms, the value for `C=CC(=O)Nc1cc(Nc2nccc(-c3cn(C)c4ccccc34)n2)c(OC(F)F)cc1N(C)CCN1CCOCC1=O` [Example 3, N-(4-(difluoromethoxy)-2-(methyl(2-(3-carbonylmorpholino)ethyl)amino)-5-((4-(1-methyl-1H-indol-3-yl)pyrimidin-2-yl)amino)phenyl)acrylamide] was 144 nM; that for `C=CC(=O)Nc1cc(Nc2nccc(-c3cn(C)c4ccccc34)n2)c(OC)cc1N1CC2(COC2)C1` [Example 27, N-(4-methoxy-5-((4-(1-methyl-1H-indol-3-yl)pyrimidin-2-yl)amino)-2-(2-oxa-6-azaspiro[3,3]heptan-6-yl)phenyl)acrylamide] was 50.2 nM; that for `C=CC(=O)Nc1cc(Nc2nccc(-n3c(C)nc4cc(OC)ccc43)n2)c(OC)cc1N(C)CCN(C)C` [Example 71, N-(2-((2-(dimethylamino)ethyl)(methyl)amino)-4-methoxy-5-((4-(5-methoxy-2-methyl-1H-benzo[d]imidazol-1-yl)pyrimidin-2-yl)amino)phenyl)acrylamide] was 28.1 nM.
Compound `C=CC(=O)Nc1cc(Nc2nccc(-c3cn(C)c4cc(F)cc(F)c34)n2)c(OC)cc1N(C)CCN(C)C` [Example 29, N-(5-((4-(4,6-difluoro-1-methyl-1H-indol-3-yl)pyrimidin-2-yl)amino)-2-((2-(dimethylamino)ethyl)(methyl)amino)-4-methoxyphenyl)acrylamide] displayed an IC50 in assay [1] of 16.5 nM.
Still for that read-out and setting: the value for `C=CC(=O)Nc1cc(Nc2nccc(-n3c(C)nc4ccc(C#N)cc43)n2)c(OC)cc1N(C)CCN(C)C` [Example 74, N-(5-((4-(6-cyano-2-methyl-1H-benzo[d]imidazol-1-yl)pyrimidin-2-yl)amino)-2-((2-(dimethylamino)ethyl)(methyl)amino)-4-methoxyphenyl)acrylamide] was 26 nM.
